pEC50: −log10 of the molar value.
Tested on: MDA-MB-468 cells
Assay: MDA-MB-468 cell viability, CellTiter-Glo, 24 hrs
Assay type: cell-based, human
Conditions: 24 hrs incubation; for pEC50: Homo sapiens
Protocol: MDA-MB-468 cells, isolated from a pleural effusion of a patient with metastatic adenocarcinoma of the breast, is a triple negative breast cancer (TNBC) cell line. The IC 50 value of E05 or lapatinib (Sigma) or the structural analogues of E05 were tested in this cell line.
Briefly, MDA-MB-468 cells (ATCC #HTB-32) were seeded with a density of 5,000 cells per well in a 96 well white plate (Costar Cat #3917) in DMEM media supplemented with 10% FBS (assay medium). The plates were incubated at 37° C., 5% CO2 for 24 hr. E05 and analogues were diluted in the assay medium and added to the respective wells of the assay plate. The plates were further incubated at 37° C., 5% CO2 for 24 hrs. After the incubation, the cell viability was assessed using CellTiter-Glo® and the plates were read for luminescence using Cytation 5 (Biotek). The relative luminescence unit (RLU) obtained was plotted against the concentration and EC50 values were estimated using Graphpad Prism 5 software (FIG. 15 and Table 2).

Row | SMILES | pEC50 | Activity (EC50)
1 | Oc1ccccc1O [E05_E, 1,2-Dihydroxybenzene (Catechol)] | 3.99 | –
2 | COc1ccc(C(=O)O)cc1O [E05_F, 3-Hydroxy-4-methoxy-benzoic acid (Isovamillic acid)] | – | Inactive
3 | O=C(O)CCc1ccc(O)cc1 [E05_D, 3-(4-Hydroxyphenyl)-propionic acid (Phloretic acid)] | – | Inactive
4 | O=C(O)/C=C/c1ccc(O)c(O)c1 [E05_A] | 3.91 | –
5 | O=C(O)c1ccc(O)cc1O [E05_H, 2,4-Dihydroxybenzoic acid] | – | Inactive
